Measurements as given in patent US11149033B2, “Heteroaryl compound, enantiomer, diastereomer or pharmaceutically acceptable salt thereof, and antiviral composition containing same as active ingredient” (priority 2016, dated 2021).
Read-outs that look alike come from different tables or passages of the source.

What was measured:
[1] = tested on: A/California/07/2009 (H1N1); test: Antiviral activity (drug efficacy evaluation by concentration) against A/California/07/2009 (H1N1); assay type: cell-based, A type influenza virus; details: Influenza A virus
A/Perth/16/2009 (H3N2) = test: Antiviral activity (drug efficacy evaluation by concentration) against A/Perth/16/2009 (H3N2); assay type: cell-based, A type influenza virus; details: Influenza A virus
B/Florida/04/2006 = test: Antiviral activity (drug efficacy evaluation by concentration) against B/Florida/04/2006; assay type: cell-based, B type influenza virus
[2] = H1N1, A/California/07/2009 (H1N1), read-out: EC50 A/California/07/2009 (H1N1)
[3] = H3N2, A/Perth/16/2009 (H3N2), read-out: EC50 A/Perth/16/2009 (H3N2)
[4] = read-out: EC50 B/Florida/04/2006, B/Florida/04/2006
[5] = CC50 B/Florida/04/2006, cytotoxicity in the B/Florida/04/2006 assay
[6] = CC50, third EC50/CC50 column pair (c7), beside the EC50 of c6

| SMILES | EC50 [1, 2] | EC50 (A/Perth/16/2009 (H3N2); [3]) | EC50 (B/Florida/04/2006; [4]) | CC50 (in vitro; [5]) | melting point | EC50 ([1]; H1N1, read-out: EC50) | EC50 (A/Perth/16/2009 (H3N2); H3N2, read-out: EC50) | EC50 (B/Florida/04/2006) | CC50 (in vitro; CC50, beside the EC50 of c2) | CC50 (in vitro; CC50, beside the EC50 of c4) | CC50 (in vitro; [6]) |
| --- | --- | --- | --- | --- | --- | --- | --- | --- | --- | --- | --- |
| COC(=O)c1ccccc1CSc1nnc(Cn2nc(C)c(Br)c2C)o1 [Compound 37, methyl 2-(((5-((4-bromo-3,5-dimethyl-1H-pyrazol-1-yl)methyl)-1,3,4-oxadiazol-2-yl)thio)methyl)benzoate] | 37.8 µM | 41.8 µM | > 50 µM | > 50 µM | 123.6 °C |  |  |  |  |  |  |
| Cc1cc(Br)cc(C)c1Nc1nnc(SCc2ccccc2-c2ccccc2)o1 [Compound 61, 5-(([1,1′-biphenyl]-2-ylmethyl)thio)-N-(4-bromo-2,6-dimethylphenyl)-1,3,4-oxadiazol-2-amine] | 2.3 µM | 2.61 µM | 2.3 µM | 4.02 µM | 211.2 °C |  |  |  |  |  |  |
| Fc1ccc(/C=C/c2nnc(Cc3ccc(Br)cc3)o2)c(Cl)c1 [Compound 86, (E)-2-(4-bromobenzyl)-5-(2-chloro-4-fluorostyryl)-1,3,4-oxadiazole] |  |  |  |  | 147.9 °C | 2.7 µM | 45.7 µM | 42 µM | > 50 µM | > 50 µM | > 50 µM |
| Cc1cccc(C)c1Nc1nnc(CCc2ccccc2C(C)C)o1 [Compound 85, N-(2,6-dimethylphenyl)-5-(2-isopropylphenethyl)-1,3,4-oxadiazol-2-amine] |  |  |  |  | 234.1 °C | > 50 µM | > 50 µM | > 50 µM | > 50 µM | > 50 µM | > 50 µM |
| Cc1nn(Cc2nnc(SCc3cccc(-c4ccccc4)c3)o2)c(C)c1Br [Compound 6, 2-(([1,1′-biphenyl]-3-ylmethyl)thio)-5-((4-bromo-3,5-dimethyl-1H-pyrazol-1-yl)methyl)-1,3,4-oxadiazole] | 2.91 µM | 2.74 µM | 3 µM | > 50 µM | 90.3 °C |  |  |  |  |  |  |
| Fc1cccc(/C=C/c2nnc(Cc3cccc(Br)c3)o2)c1Cl [Compound 194, 2-(3-bromobenzyl)-5-(2-chloro-3-fluorostyryl)-1,3,4-oxadiazole] |  |  |  |  | 140.2 °C | 1.31 µM | 1.43 µM | 1.53 µM | 49.9 µM | > 50 µM | > 50 µM |
| Brc1ccc(-c2nnc(SCc3ccccc3-c3ccccc3)o2)cc1 [Compound 42, 2-(([1,1′-biphenyl]-2-ylmethyl)thio)-5-(4-bromophenyl)-1,3,4-oxadiazole] | 1.62 µM | 2.33 µM | 2.92 µM | 14.8 µM | 120.5 °C |  |  |  |  |  |  |
| Fc1ccccc1/C=C/c1nnc(Cc2cccc(Cl)c2)o1 [Compound 187, 2-(3-chlorobenzyl)-5-(2-fluorostyryl)-1,3,4-oxadiazole] |  |  |  |  | 117.3 °C | 1.89 µM | 1.51 µM | 1.7 µM | > 50 µM | > 50 µM | > 50 µM |
| COc1ccccc1/C=C/c1nnc(Nc2ccc(Br)cc2)o1 [Compound 120, (E)-N-(4-bromophenyl)-5-(2-methoxystyryl)-1,3,4-oxadiazol-2-amine] |  |  |  |  | 232.4 °C | 23.1 µM | 18.1 µM | 17.4 µM | > 50 µM | > 50 µM |  |
| Oc1cccc(Cc2nnc(/C=C/c3ccc(F)cc3Cl)o2)c1 [Compound 201, (E)-3-((5-(2-chloro-4-fluorostyryl)-1,3,4-oxadiazol-2-yl)methyl)phenol] |  |  |  |  | 152.7 °C | 3.25 µM | 3.05 µM | 3.7 µM | > 50 µM | > 50 µM | > 50 µM |
| Clc1cc2c(cc1/C=C/c1nnc(Cc3ccc(Br)cc3)o1)OCO2 [Compound 162, 2-(4-bromobenzyl)-5-(2-(6-chlorobenzo[d][1,3]dioxol-5-yl)vinyl)-1,3,4-oxadiazole] |  |  |  |  | 186.2 °C | 30.5 µM | > 50 µM | > 50 µM | > 50 µM | > 50 µM | > 50 µM |
| CC(C)c1cccc(Cc2nnc(/C=C/c3ccc(F)cc3Cl)o2)c1 [Compound 182, (E)-2-(2-chloro-4-fluorostyryl)-5-(3-isopropylbenzyl)-1,3,4-oxadiazole] |  |  |  |  | 117.3 °C | 0.617 µM | 0.373 µM | 0.549 µM | > 50 µM | > 50 µM | > 50 µM |
| Cc1nn(Cc2nnc(SCc3ccc(-c4ccccc4)cc3)o2)c(C)c1Br [Compound 2, 2-(([1,1′-biphenyl]-4-ylmethyl)thio)-5-((4-bromo-3,5-dimethyl-1H-pyrazol-1-yl)methyl)-1,3,4-oxadiazole] | 47.5 µM | 46.7 µM | > 50 µM | > 50 µM | 135.9 °C |  |  |  |  |  |  |
| Fc1ccc(/C=C/c2nnc(Cc3cccc(Br)c3)o2)cc1 [Compound 188, 2-(3-bromobenzyl)-5-(4-fluorostyryl)-1,3,4-oxadiazole] |  |  |  |  | 95.3 °C | 9.58 µM | 11.6 µM | 12.2 µM | > 50 µM | > 50 µM | > 50 µM |
| COc1ccccc1/C=C/c1nnc(Cc2ccc(Br)cc2)o1 [Compound 163, 2-(4-bromobenzyl)-5-(2-methoxystyryl)-1,3,4-oxadiazole] |  |  |  |  | 106.3 °C | 32.3 µM |  | > 50 µM | > 50 µM | > 50 µM | > 50 µM |
| Cc1nn(Cc2nnc(SCc3ccccc3Cc3ccccc3)o2)c(C)c1Br [Compound 38, 2-((2-benzylbenzyl)thio)-5-((4-bromo-3,5-dimethyl-1H-pyrazol-1-yl)methyl)-1,3,4-oxadiazole] | 1.03 µM | 1.04 µM | 1.18 µM | > 50 µM |  |  |  |  |  |  |  |
| Cc1nn(Cc2nnc(N(C)Cc3ccccc3-c3ccccc3)o2)c(C)c1Br [Compound 44, N-([1,1′-biphenyl]-2-ylmethyl)-5-((4-bromo-3,5-dimethyl-1H-pyrazol-1-yl)methyl)-N-methyl-1,3,4-oxadiazol-2-amine] | > 50 µM | 29.4 µM | > 50 µM | > 50 µM |  |  |  |  |  |  |  |
| Cc1nn(Cc2nnc(NCc3ccccc3-c3ccccc3)o2)c(C)c1Br [Compound 17, N-([1,1′-biphenyl]-2-ylmethyl)-5-((4-bromo-3,5-dimethyl-1H-pyrazol-1-yl)methyl)-1,3,4-oxadiazol-2-amine] | 35.2 µM | 30 µM | 19 µM | 38.1 µM |  |  |  |  |  |  |  |
| Cc1ccc(F)c(Cc2nnc(/C=C/c3ccccc3C(C)C)o2)c1 [Compound 173, 2-(2-fluoro-5-methylbenzyl)-5-(2-isopropylstyryl)-1,3,4-oxadiazole] |  |  |  |  |  | 1.77 µM | 1.71 µM | 1.91 µM | 13.5 µM | 12.6 µM | 15.8 µM |
| c1ccc(-c2ccccc2CSc2nnc(Cn3cccn3)o2)cc1 [Compound 4, 2-((1H-pyrazol-1-yl)methyl)-5-(([1,1′-biphenyl]-2-ylmethyl)thio)-1,3,4-oxadiazole] | > 50 µM | > 50 µM | > 50 µM | > 50 µM |  |  |  |  |  |  |  |
| Cc1nn(Cc2nnc(Cc3cccc(Cl)c3)o2)c(C)c1Br [Compound 46, 2-((4-bromo-3,5-dimethyl-1H-pyrazol-1-yl)methyl)-5-(3-chlorobenzyl)-1,3,4-oxadiazole] | 24.3 µM | 21.8 µM | 27.5 µM | > 50 µM |  |  |  |  |  |  |  |
| Cc1ccccc1CSc1nnc(Cn2nc(C)c(Br)c2C)o1 [Compound 9, 2-((4-bromo-3,5-dimethyl-1H-pyrazol-1-yl)methyl)-5-((2-methylbenzyl)thio)-1,3,4-oxadiazole] | 4.2 µM | 5.55 µM | 4.7 µM | > 50 µM |  |  |  |  |  |  |  |
| CC(C)Cc1ccc(C(C)c2nnc(/C=C/c3ccccc3C(C)C)o2)cc1 (stereo not drawn) [Compound 148, 2-(1-(4-isobutylphenyl)ethyl)-5-(2-isopropylstyryl)-1,3,4-oxadiazole] |  |  |  |  |  | 39.8 µM | 38.9 µM | 45.1 µM | > 50 µM | > 50 µM | > 50 µM |
| Brc1ccc(Nc2nnc(/C=C/c3ccccc3Br)o2)cc1 [Compound 83, (E)-N-(4-bromophenyl)-5-(2-bromostyryl)-1,3,4-oxadiazol-2-amine] |  |  |  |  |  | 4.25 µM | 4.75 µM | 4.63 µM | > 50 µM | > 50 µM | > 50 µM |
| COc1ccccc1/C=C/c1nnc(Cc2cccc(Br)c2)o1 [Compound 210, 2-(3-bromobenzyl)-5-(2-methoxystyryl)-1,3,4-oxadiazole] |  |  |  |  |  | 47.3 µM | 23.5 µM | 36.2 µM | 48.1 µM | 48.1 µM | 46.8 µM |
| CC(C)c1ccccc1/C=C/c1nnc(C(C)c2ccccc2)o1 (stereo not drawn) [Compound 147, 2-(2-isopropylstyryl)-5-(1-phenylethyl)-1,3,4-oxadiazole] |  |  |  |  |  | 6 µM | 6 µM | 4.4 µM | > 50 µM | > 50 µM | > 50 µM |
| Cc1ccccc1CC(C)c1nnc(Cc2ccc(Br)cc2)o1 (stereo not drawn) [Compound 140, 2-(4-bromobenzyl)-5-(1-(o-tolyl)propan-2-yl)-1,3,4-oxadiazole] |  |  |  |  |  | 18.2 µM | 19.9 µM | 14.1 µM | > 50 µM | > 50 µM | > 50 µM |
